The text below walks through data of ChEMBL document CHEMBL1137531, “Structure-based design and synthesis of (5-arylamino-2H-pyrazol-3-yl)-biphenyl-2',4'-diols as novel and potent human CHK1 inhibitors” (J Med Chem, 2007).

Experiment [1] deals with MDA-MB-231. Briefly: Cell cycle arrest in MDA-MB-231 cells assessed as accumulation at S phase by FACS analysis. It is filed as functional, cell-based. The note with it: Homo sapiens.
The target of experiment [2] is T1, Serine/threonine-protein kinase Chk1 (Homo sapiens, UniProt O14757).
T1 sequence (O14757 whole entry): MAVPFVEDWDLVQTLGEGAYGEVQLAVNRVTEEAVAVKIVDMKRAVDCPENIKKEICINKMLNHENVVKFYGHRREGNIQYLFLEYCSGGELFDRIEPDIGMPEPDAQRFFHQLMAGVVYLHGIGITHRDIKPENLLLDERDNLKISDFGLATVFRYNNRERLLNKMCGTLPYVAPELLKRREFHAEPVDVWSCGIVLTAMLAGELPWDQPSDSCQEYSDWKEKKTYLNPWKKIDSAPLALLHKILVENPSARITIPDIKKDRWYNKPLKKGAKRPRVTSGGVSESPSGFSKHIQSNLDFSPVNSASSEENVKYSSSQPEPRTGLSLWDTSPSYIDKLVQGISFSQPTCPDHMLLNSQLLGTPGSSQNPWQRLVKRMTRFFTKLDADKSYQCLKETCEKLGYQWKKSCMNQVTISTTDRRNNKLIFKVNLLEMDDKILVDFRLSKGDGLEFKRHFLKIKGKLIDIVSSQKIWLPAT
Briefly: Inhibition of human CHK1 expressed in baculovirus/insect cell system.

The target of experiment [3] is T1, Serine/threonine-protein kinase Chk1. Briefly: Activity at human CHK1 in CA46 cells by histone H3 ELISA assay. It is filed as cell-based.
Experiment [4] has as its target Serine/threonine-protein kinase Chk2 (Homo sapiens) (UniProt O96017). Briefly: Inhibition of human CHK2 expressed in Escherichia coli at 1 uM.
The target in experiment [5] is Aurora kinase A (Homo sapiens, UniProt O14965). Briefly: Inhibition of Aurora A.
Experiment [6] has as its target Protein kinase C alpha type (Homo sapiens) (UniProt P17252). Briefly: Inhibition of PKCalpha at 1 uM.
In experiment [7] the target is Serine/threonine-protein kinase PAK 4 (Homo sapiens, UniProt O96013). Briefly: Inhibition of PAK4.
In experiment [8] the target is 3-phosphoinositide-dependent protein kinase 1 (Homo sapiens) (UniProt O15530). Briefly: Inhibition of human PDK1 at 1 uM.
The target of experiment [9] is Dual specificity protein kinase CLK1 (Homo sapiens) (UniProt P49759). Briefly: Inhibition of CLK at 1 uM.
Experiment [10] deals with Serine/threonine-protein kinase 26 (Homo sapiens, UniProt Q9P289). Briefly: Inhibition of MASK.
Experiment [11] concerns the target Mitogen-activated protein kinase 1 (Homo sapiens) (UniProt P28482). Briefly: Inhibition of ERK2 at 1 uM.
The target in experiment [12] is Calcium/calmodulin-dependent protein kinase type 1 (Homo sapiens, UniProt Q14012). Briefly: Inhibition of CAMK1.
Chain of Calcium/calmodulin-dependent protein kinase type 1 (Q14012 whole entry): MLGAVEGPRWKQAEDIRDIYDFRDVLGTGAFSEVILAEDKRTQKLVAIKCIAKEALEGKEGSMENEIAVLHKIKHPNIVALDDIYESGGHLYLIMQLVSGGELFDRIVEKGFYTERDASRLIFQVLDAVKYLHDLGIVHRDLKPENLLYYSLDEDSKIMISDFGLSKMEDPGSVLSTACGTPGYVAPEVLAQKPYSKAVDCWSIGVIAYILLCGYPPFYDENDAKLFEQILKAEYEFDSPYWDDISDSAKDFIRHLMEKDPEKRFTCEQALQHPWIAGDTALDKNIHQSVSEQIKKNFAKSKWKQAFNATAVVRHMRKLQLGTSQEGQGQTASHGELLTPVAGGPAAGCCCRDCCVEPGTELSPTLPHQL
Experiment [13] in a line: Inhibition of bovine PKA.
In experiment [14] the target is T2, RAC-alpha serine/threonine-protein kinase (Homo sapiens, UniProt P31749). Briefly: Inhibition of AKT1 at 1 uM.
T2 sequence (P31749 whole entry): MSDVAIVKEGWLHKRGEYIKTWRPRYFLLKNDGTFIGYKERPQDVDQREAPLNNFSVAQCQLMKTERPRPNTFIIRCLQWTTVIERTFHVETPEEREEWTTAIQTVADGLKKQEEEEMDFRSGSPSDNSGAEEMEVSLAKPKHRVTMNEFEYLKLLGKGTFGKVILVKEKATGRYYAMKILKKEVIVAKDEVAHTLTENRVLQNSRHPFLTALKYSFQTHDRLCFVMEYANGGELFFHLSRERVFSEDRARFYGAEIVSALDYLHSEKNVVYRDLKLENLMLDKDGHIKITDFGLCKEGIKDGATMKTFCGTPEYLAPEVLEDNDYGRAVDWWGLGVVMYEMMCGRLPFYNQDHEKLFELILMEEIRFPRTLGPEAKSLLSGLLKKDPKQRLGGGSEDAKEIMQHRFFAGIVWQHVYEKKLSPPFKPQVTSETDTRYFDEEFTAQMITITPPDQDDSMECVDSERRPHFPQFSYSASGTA
Experiment [15] addresses Tyrosine-protein kinase Lck (Homo sapiens, UniProt P06239). Briefly: Inhibition of human LCK.
The target in experiment [16] is Protein kinase C zeta type (Homo sapiens) (UniProt Q05513). Briefly: Inhibition of PKCzeta at 1 uM.
For experiment [17], the target named is Insulin receptor (Homo sapiens, UniProt P06213). Briefly: Inhibition of INSR.
In experiment [18] the target is Casein kinase II (Homo sapiens) (UniProt P67870+P68400+P19784). Briefly: Inhibition of CK2 at 1 uM. It is filed as protein-complex assay.
In experiment [19] the target is Rho-associated protein kinase 1 (Homo sapiens) (UniProt Q13464). Briefly: Inhibition of ROCK1 activity at 1 uM.
In experiment [20] the target is Serine/threonine-protein kinase pim-2 (Homo sapiens, UniProt Q9P1W9). Briefly: Inhibition of PIM2.
In experiment [21] the target is Cyclin-dependent kinase 1 (Homo sapiens, UniProt P06493). Briefly: Inhibition of CDK1 expressed in Sf21 cells.
Chain of Cyclin-dependent kinase 1 (P06493 whole entry): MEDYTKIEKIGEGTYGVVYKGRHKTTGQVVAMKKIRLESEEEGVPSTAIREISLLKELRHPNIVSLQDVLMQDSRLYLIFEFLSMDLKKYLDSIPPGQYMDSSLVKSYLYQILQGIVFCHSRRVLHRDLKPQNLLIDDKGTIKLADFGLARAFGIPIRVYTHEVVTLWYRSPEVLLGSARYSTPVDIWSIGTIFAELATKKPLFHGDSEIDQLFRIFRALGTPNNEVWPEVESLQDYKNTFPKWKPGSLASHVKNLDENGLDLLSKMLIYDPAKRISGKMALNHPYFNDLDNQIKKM
The target in experiment [22] is Inhibitor of nuclear factor kappa-B kinase subunit epsilon (Homo sapiens) (UniProt Q14164). Briefly: Inhibition of IKKi at 1 uM.
Experiment [23] addresses Inhibitor of nuclear factor kappa-B kinase subunit beta (Homo sapiens) (UniProt O14920). Briefly: Inhibition of IKK-beta at 1 uM.
For experiment [24], the target named is Serine/threonine-protein kinase Nek2 (Homo sapiens, UniProt P51955). Briefly: Inhibition of NEK2.
The target in experiment [25] is Cyclin-dependent kinase 2 (Homo sapiens) (UniProt P24941). Briefly: Inhibition of CDK2 at 1 uM.
In experiment [26] the target is Glycogen synthase kinase-3 beta (Homo sapiens) (UniProt P49841). Briefly: Inhibition of GSK3-beta at 1 uM.
The target in experiment [27] is Protein kinase C beta type (Homo sapiens) (UniProt P05771). Briefly: Inhibition of PKCbeta at 1 uM.
Experiment [28] addresses T2, RAC-alpha serine/threonine-protein kinase. Briefly: Inhibition of AKT1.
In experiment [29] the target is MAP kinase-activated protein kinase 2 (Mus musculus) (UniProt P49138). Briefly: Inhibition of mouse MAPKAP2 at 1 uM.
Chain of MAP kinase-activated protein kinase 2 (Mus musculus) (P49138 whole entry): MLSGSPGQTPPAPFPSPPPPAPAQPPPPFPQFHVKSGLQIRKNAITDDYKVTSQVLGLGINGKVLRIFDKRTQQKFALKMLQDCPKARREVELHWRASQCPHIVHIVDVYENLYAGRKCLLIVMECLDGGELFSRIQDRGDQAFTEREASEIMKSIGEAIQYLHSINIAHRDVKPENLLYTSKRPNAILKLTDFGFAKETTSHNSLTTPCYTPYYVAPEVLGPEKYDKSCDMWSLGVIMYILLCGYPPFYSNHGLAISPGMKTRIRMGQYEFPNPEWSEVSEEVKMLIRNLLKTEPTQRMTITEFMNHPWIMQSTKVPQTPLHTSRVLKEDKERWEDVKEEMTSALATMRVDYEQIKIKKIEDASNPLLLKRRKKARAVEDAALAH
In experiment [30] the target is Serine/threonine-protein kinase Sgk1 (Homo sapiens, UniProt O00141). Briefly: Inhibition of human SGK.
Chain of Serine/threonine-protein kinase Sgk1 (O00141 whole entry): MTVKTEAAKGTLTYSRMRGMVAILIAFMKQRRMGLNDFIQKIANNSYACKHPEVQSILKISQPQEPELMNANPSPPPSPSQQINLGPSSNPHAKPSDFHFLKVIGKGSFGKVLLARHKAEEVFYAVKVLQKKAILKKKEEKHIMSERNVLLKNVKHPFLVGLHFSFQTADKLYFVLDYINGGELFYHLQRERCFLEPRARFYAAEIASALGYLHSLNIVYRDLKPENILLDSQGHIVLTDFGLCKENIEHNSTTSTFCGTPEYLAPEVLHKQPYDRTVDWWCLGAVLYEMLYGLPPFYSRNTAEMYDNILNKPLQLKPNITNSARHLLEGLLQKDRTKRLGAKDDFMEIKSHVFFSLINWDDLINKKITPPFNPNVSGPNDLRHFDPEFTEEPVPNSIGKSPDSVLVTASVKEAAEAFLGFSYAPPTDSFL
The target in experiment [31] is Proto-oncogene tyrosine-protein kinase Src (Homo sapiens) (UniProt P12931). Briefly: Inhibition of SRC at 1 uM.
Chain of Proto-oncogene tyrosine-protein kinase Src (Homo sapiens) (P12931 2-536 limits assumed): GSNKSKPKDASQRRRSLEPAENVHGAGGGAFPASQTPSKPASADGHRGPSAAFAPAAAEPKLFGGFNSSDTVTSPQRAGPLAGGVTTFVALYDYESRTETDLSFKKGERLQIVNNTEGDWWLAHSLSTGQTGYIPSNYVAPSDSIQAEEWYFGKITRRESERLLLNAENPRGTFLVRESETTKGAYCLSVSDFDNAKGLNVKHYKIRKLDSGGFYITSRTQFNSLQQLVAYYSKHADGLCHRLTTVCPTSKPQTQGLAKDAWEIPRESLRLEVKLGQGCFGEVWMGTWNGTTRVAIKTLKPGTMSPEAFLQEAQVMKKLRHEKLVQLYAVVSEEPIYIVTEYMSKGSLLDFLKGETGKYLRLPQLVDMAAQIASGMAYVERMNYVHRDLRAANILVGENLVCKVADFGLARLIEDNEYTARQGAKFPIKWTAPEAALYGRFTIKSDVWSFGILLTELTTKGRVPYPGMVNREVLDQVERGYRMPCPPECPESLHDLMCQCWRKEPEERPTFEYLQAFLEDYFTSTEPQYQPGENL
The nature of experiment [32]: Inhibition of human VEGFR expressed in baculovirus/insect cell system by FLVK-P assay.
Experiment [33] has as its target Tyrosine-protein kinase ABL1 (Homo sapiens, UniProt P00519). Briefly: Inhibition of ABL.
Experiment [34] has as its target Mitogen-activated protein kinase 1 (Homo sapiens) (UniProt P28482). Briefly: Inhibition of human MAPK1 at 1 uM.
Experiment [35] has as its target Serine/threonine-protein kinase Chk1 (Homo sapiens) (UniProt O14757). Briefly: Activity at human CHK1 in CA46 cells by histone H3 ELISA assay at 10 uM. In kind it is cell-based. For orientation: In an ELISA, binding on a coated surface is turned into a signal by an enzyme label.
Experiment [36] has the same target. Briefly: Activity at human CHK1 in CA46 cells by histone H3 ELISA assay at 1.0 uM. It is filed as cell-based.

Structures are written as SMILES. Activity calls are given as the source filed them. The rule behind the calls is not given here.

Chain of Mitogen-activated protein kinase 1 (Homo sapiens) (P28482 whole entry): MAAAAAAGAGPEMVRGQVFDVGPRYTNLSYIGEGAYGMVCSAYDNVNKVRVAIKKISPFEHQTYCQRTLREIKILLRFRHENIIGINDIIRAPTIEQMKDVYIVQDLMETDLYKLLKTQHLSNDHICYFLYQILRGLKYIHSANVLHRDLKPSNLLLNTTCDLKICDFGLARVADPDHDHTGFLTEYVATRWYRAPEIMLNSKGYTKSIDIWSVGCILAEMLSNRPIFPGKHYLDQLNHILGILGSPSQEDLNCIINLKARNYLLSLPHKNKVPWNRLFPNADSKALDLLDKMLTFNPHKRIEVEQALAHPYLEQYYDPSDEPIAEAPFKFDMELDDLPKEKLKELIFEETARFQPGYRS
Chain of Inhibitor of nuclear factor kappa-B kinase subunit beta (Homo sapiens) (O14920 whole entry): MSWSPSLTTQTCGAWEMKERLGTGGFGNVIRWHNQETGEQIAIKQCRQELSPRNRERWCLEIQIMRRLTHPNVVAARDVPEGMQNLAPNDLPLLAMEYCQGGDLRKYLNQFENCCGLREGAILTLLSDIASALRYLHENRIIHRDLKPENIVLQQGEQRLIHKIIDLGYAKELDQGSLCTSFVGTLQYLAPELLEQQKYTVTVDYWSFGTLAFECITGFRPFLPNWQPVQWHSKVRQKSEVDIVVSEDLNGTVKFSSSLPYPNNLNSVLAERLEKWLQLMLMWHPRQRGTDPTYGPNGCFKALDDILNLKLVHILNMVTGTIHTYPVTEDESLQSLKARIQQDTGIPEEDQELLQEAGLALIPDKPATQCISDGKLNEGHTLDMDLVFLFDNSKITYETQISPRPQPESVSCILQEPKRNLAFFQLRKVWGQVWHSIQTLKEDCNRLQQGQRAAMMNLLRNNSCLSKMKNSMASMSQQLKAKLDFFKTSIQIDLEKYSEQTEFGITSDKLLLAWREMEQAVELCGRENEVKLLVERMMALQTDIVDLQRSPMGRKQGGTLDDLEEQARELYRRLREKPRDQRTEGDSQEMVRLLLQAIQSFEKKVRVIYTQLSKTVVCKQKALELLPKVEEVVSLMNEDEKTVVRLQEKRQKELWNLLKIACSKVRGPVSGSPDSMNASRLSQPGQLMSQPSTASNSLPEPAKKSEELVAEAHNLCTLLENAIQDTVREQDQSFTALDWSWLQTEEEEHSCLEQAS
Chain of Tyrosine-protein kinase Lck (P06239 whole entry): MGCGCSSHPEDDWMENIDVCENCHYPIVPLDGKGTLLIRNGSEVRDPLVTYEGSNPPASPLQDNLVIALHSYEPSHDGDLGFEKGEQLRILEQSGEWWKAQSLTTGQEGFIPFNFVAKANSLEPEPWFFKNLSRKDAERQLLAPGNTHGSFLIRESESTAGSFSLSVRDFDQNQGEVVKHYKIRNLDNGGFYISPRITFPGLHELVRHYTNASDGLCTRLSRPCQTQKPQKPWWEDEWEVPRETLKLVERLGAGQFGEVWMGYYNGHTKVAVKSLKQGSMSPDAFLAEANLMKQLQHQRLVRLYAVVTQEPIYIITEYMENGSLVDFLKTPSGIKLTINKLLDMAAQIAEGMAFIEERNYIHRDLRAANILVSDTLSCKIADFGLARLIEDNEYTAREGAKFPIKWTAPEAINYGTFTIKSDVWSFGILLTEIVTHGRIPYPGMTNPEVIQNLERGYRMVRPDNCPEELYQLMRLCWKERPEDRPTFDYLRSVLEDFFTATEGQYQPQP

Consider `Nc1ccn([C@@H]2O[C@H](CO)[C@@H](O)C2(F)F)c(=O)n1`, for which the outcome in experiment [1] was Active.

`CN(C)Cc1ccc(Nc2cc(-c3ccc(-c4ccc(O)cc4O)cc3)[nH]n2)cc1`: affinity in [2] was put at a Ki of 0.19 nM. This molecule displayed an EC50 in experiment [3] of 58 nM.

As for `CC(C)NCc1ccc(Nc2cc(-c3ccc(-c4ccc(O)cc4O)cc3)[nH]n2)cc1`, the inhibition in experiment [4] was 27.5%; in experiment [6] it was 0%; in experiment [8] it was 33%; in [9], 24%; in experiment [11], -2%; in [14], 7%. Moreover, the inhibition in experiment [16] came to 18.6%; in experiment [18], 29%; in [19], 13.5%; in [22] it was 26%; in experiment [23], 12.7%; in experiment [25], 31%. In addition, the inhibition in experiment [26] stood at 30%; in experiment [27], 16%; in [29] it was 0.7%; in experiment [31], 8%; in experiment [34], 14.5%. Besides, the IC50 in [5] is 10000 nM; in [7], 14400 nM; in experiment [10] it was 1850 nM; in [12], 2130 nM; in [13], 860 nM; in [15], 2550 nM. The IC50 in experiment [17] was more than 30000 nM; in experiment [20] it was 1720 nM; in experiment [21] it was 3300 nM; in experiment [24], 1040 nM; in experiment [28], 26900 nM; in [30] it was 290 nM. Besides, the results for the IC50 in experiment [32] and in experiment [33] were 1030 nM and 1100 nM, respectively.

Molecule `O=C(Nc1ccc(O)cc1O)c1ccc2c(-c3nc4ccccc4[nH]3)n[nH]c2c1` gave an inhibition constant Ki in [2] of 0.5 nM. The EC50 in experiment [3] worked out at 550 nM.

Consider `Oc1ccc(-c2ccc(-c3cc(Nc4ccc(CN5CCCC5)cc4)n[nH]3)cc2)c(O)c1`, for which the affinity in [2] corresponds to a Ki of 0.18 nM. This molecule gave an EC50 in [3] of 41 nM.

For `Oc1ccc(-c2ccc(-c3cc(Nc4ccccc4)n[nH]3)cc2)c(O)c1`, the inhibition constant (Ki) in experiment [2] amounted to 1.2 nM. The molecule also came in with an EC50 in experiment [3] of 500 nM.

`CCC(C)NCc1ccc(Nc2cc(-c3ccc(-c4ccc(O)cc4O)cc3)n[nH]2)cn1` (stereo not given): the Ki in experiment [2] was found to be 0.2 nM. The EC50 in experiment [3] stood at 230 nM.

`Oc1ccc(-c2ccc(-c3cc(Nc4ccc(CN5CCCCC5)nc4)[nH]n3)cc2)c(O)c1` showed an inhibitory constant (Ki) in [2] of 0.3 nM. For the same molecule, the concentration for a half-maximal effect (EC50) in [3] was 150 nM.

`O=C(Nc1ccc(O)cc1)c1ccc2c(-c3nc4ccccc4[nH]3)n[nH]c2c1`: the outcome in [35] was Active. Besides, in experiment [36], the result was inactive.

In turn, `Oc1ccc(-c2ccc(-c3cc(Nc4ccc(CNCC5CC5)nc4)[nH]n3)cc2)c(O)c1` yielded an inhibitory constant (Ki) in [2] of 0.8 nM. Also, in [3], the EC50 turned out to be 165 nM.

With `Oc1ccc(-c2ccc(-c3cc(Nc4ccc(CNC5CC5)cc4)n[nH]3)cc2)c(O)c1`, affinity in experiment [2] was put at a Ki of 0.38 nM. The EC50 in experiment [3] was 60 nM.

The Ki is a dissociation constant, usually derived from enzyme kinetics or from competition with a known ligand. A high value points to lower affinity. One may read the EC50 as the midpoint of the concentration-response curve. A low value points to a more potent agent. As usually defined, the inhibition is the drop in the measured response relative to a control, in per cent. For orientation: IC50 means the point on the concentration scale where inhibition reaches its midpoint.
